Measured values reported in patent publication US6800650B2, “Pyridine and quinoline derivatives” (Hoffmann-La Roche Inc., priority 2002, dated 2004).

Each compound was assayed against T1, human DPP-IV (Homo sapiens, UniProt P27487) (assay: DPP-IV activity assay (colorimetric / fluorometric), IC50 determination). Details: natural human DPP-IV from human plasma pool or recombinant human DPP-IV; 37° C., pH 7.8.
T1 construct: made in house; host or cells: Pichia pastoris, purified from the culture medium
T1 sequence (P27487 31-766): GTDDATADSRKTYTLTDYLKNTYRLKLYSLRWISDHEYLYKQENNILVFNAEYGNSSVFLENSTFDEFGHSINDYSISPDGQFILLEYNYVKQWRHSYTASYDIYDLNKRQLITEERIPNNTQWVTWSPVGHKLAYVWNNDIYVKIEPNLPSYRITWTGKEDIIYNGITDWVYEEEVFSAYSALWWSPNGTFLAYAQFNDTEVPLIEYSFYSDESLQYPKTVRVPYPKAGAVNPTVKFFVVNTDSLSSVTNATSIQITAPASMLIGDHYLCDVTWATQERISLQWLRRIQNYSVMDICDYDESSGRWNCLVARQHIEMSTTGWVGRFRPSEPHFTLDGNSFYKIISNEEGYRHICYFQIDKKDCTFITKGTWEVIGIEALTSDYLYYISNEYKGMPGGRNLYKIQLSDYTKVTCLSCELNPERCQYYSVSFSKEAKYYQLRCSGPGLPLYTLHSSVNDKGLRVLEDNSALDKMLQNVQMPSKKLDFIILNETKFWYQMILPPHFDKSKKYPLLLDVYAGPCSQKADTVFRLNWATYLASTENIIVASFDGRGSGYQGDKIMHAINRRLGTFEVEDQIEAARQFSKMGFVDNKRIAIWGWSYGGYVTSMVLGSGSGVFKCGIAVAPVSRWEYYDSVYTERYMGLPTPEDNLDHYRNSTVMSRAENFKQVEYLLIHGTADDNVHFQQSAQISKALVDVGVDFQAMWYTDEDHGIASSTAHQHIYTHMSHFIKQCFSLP
Format: biochemical
Experimental: The following tests were carried out in order to determine the activity of the compounds of formula I.
Activity of DPP-IV inhibitors are tested with natural human DPP-IV derived from a human plasma pool or with recombinant human DPP-IV. Human citrate plasma from different donors is pooled, filtered through a 0.2 micron membrane under sterile conditions, and aliquots of 1 ml are shock frozen and stored at −120° C. until used. In the colorimetric DPP-IV assay 5 to 10 μl human plasma, and in the fluorometric assay 1.0 μl of human plasma in a total assay volume of 100 μl is used as an enzyme source. The cDNA of the human DPP-IV sequence of amino acid 31- to 766, restricted for the N-terminus and the transmembrane domain, is cloned into pichia pastoris. The sequence is available under Accession Number NM_001935. It is also disclosed, for example, in Misumi et al. (1992), molecular cloning and sequence analysis of human dipeptidyl peptidase IV, a serine proteinase of the cell surface. Biochim Biophys. Acta 1131(3), 333-336. Human DPP-IV is expressed and purified from the culture medium using conventional column chromatography including size exclusion and anion and cation chromatography. The purity of the final enzyme preparation of Coomassie blue SDS-PAGE is >95%. In the colorimetric DPP-IV assay 20 ng rec.-h DPP-IV and in the fluorometric assay 2 ng rec-h DPP-IV in a total assay volume of 100 μl is used as an enzyme source.
In the fluorogenic assay Ala-Pro-7-amido-4-trifluoromethylcoumarin (Calbiochem No 125510) is used as a substrate. A 20 mM stock solution in 10% DMF/H2O is stored at −20° C. until use. In IC50 determinations a final substrate concentration of 50 μM is used. In assays to determine kinetic parameters as Km, Vmax, Ki, the substrate concentration is varied between 10 μM and 500 μM.
In the colorimetric assay H-Ala-Pro-pNA.HCl (Bachem L-1115) is used as a substrate. A 10 mM stock solution in 10% MeOH/H2O is stored at −20° C. until use. In IC50 determinations a final substrate concentration of 200 μM is used. In assays to determine kinetic parameters as Km, Vmax, Ki, the substrate concentration is varied between 100 μM and 2000 μM.
Fluorescence is detected in a Perkin Elmer Luminescence Spectrometer LS 50B at an excitation wavelength of 400 nm and an emission wavelength of 505 nm continuously every 15 seconds for 10 to 30 minutes. Initial rate constants are calculated by best fit linear regression.
The absorption of pNA i.e., para-nitroanilin, liberated from the colorimetric substrate is detected in a Packard SpectraCount at […] continuously every 2 minutes for 30 to 120 minutes. Initial rate constants are calculated by best fit linear regression.
DPP-IV activity assays are performed in 96 well plates at 37° C. in a total assay volume of 100 μl. The assay buffer consists of 50 mM Tris/HCl pH 7.8 containing 0.1 mg/ml BSA and 100 mM NaCl. Test compounds are solved in 100% DMSO, diluted to the desired concentration in 10% DMSO/H2O. The final DMSO concentration in the assay is 1% (v/v). At this concentration enzyme inactivation by DMSO is <5%. Compounds are with (10 minutes at 37° C.) and without preincubation with the enzyme. Enzyme reactions are started with substrate application followed by immediate mixing.
IC50 determinations of test compounds are calculated by non-linear best fit regression of the DPP-IV inhibition of at least 5 different compound concentrations. Kinetic parameters of the enzyme reaction are calculated at least 5 different substrate concentrations and at least 5 different test compound concentrations.

Row | IC50 | SMILES
1 | 45 nM | NCc1c(N)nc2c(c1-c1ccc(Cl)cc1Cl)CCc1ccccc1-2 [Example 3, 3-Aminomethyl-4-(2,4-dichloro-phenyl)-5,6-dihydro-benzo[h]quinolin-2-ylamine]
2 | 2.7 nM | COc1cc2c(cc1OC)-c1nc(N)c(CN)c(-c3ccc(Cl)cc3Cl)c1C2 [Example 7, 3-Aminomethyl-4-(2,4-dichloro-phenyl)-7,8-dimethoxy-5H-indeno[1,2-b]pyridin-2-ylamine]
3 | 18 nM | NCc1c(N)nc2c(c1-c1ccc(Cl)cc1Cl)COc1ccccc1-2 [Example 9, 2-Aminomethyl-1-(2,4-dichloro-phenyl)-10H-9-oxa-4-aza-phenanthren-3-ylamine]
4 | 80 nM | NCc1c(N)nc2c(c1-c1ccc(Cl)cc1Cl)CCc1sccc1-2 [Example 10, 3-Aminomethyl-4-(2,4-dichloro-phenyl)-5,6-dihydro-thieno[2,3-h]quinolin-2-ylamine]
5 | 1910 nM | Cc1ccc(-c2c(CN)c(N)nc3ccccc23)cc1 [Example 25, 3-Aminomethyl-4-p-tolyl-quinolin-2-ylamine]
6 | 1590 nM | NCc1c(N)nc2ccc(Cl)cc2c1-c1ccccc1Cl [Example 28, 3-Aminomethyl-6-chloro-4-(2-chloro-phenyl)-quinolin-2-ylamine]
7 | 366 nM | NCc1c(N)nc2ccccc2c1-c1ccccc1Cl [Example 32, 3-Aminomethyl-4-(2-chloro-phenyl)-quinolin-2-ylamine]
